Test results from patent publication US5534416A, “Fluorescent viability assay using cyclic-substituted unsymmetrical cyanine dyes” (Molecular Probes, Inc., priority 1993, dated 1996).

What was measured:
[1] = tested on: NIH/3T3 mouse fibroblast cell line; assay: Live/dead staining of fibroblasts, fluorescence microscopy; type: cell-based
Description: NIH/3T3 mouse fibroblast cell line is obtained from American Type Culture Collection Co., Rockville, Md. The cells are maintained in a humidified atmosphere of 5% CO2 in Dulbecco's modified Eagle's medium (DMEM) supplemented with 10% calf serum, 50 μg/mL gentamicin, 300 μg/mL L-glutamine and 10 mM HEPES pH 7.4. Cells are subcultured every 3 days by trypsinization using 0.05% trypsin and 0.02% EDTA in a Ca- and Mg-free saline solution (Gibco BRL, Gaithersburg, Md.).
A 5 μM staining solution of the dye 61 is prepared by dilution of 25 μL of 2 mM stock solution into 10 mL DMEM. A 2 μM staining solution of ethidium homodimer-1 is prepared by dilution of 2 μL of 10 mM stock solution into 10 mL phosphate buffered saline (PBS).
The 3T3 cells are stained with the 5 μM solution of dye 61, and then incubated in the dark at room temperature for 30 minutes. The cells are then […] with the 2 μM ethidium homodimer-1 solution.
The 3T3 cells are then observed a long-pass fluorescein filter to view dye 61 fluorescence and a long-pass Texas Red® filter to view the emission of ethidium homodimer. A Nikon fluorescence microscope equipped with a 40× objective is used for inspection and photography.

calf thymus DNA = conditions: Table 5; bound to excess calf thymus DNA (50 bp/dye); cited from earlier work
B. cereus = assay: Fluorescence per cell, stained bacteria (microtiter plate reader); type: cell-based, Bacillus cereus; conditions: optimal dye concentration, corrected for cell number
Description: (§1) 1. Measured in a fluorescence microtiter plate reader with extraction and
(§2) emission filters at 485+/-10 and 530+/-12, respectively. Fluorescence dat
(§3) are corrected for cell number; but are not corrected for cell volume or
(§4) 2. Optimal dye concentrations determined as in Example 3.
(§5) 3. Suspension concentrations as used for Example 3.
(§6) A culture of E. coli is washed by centrifugation and resuspended in water to its original volume. Using Corning 96-well microtiter plates with flat bottoms, 150 μL volumes of suspension are loaded per well. A single well of sterile water is the well background standard. Using a Dynatech MR600 microplate reader equipped with a 410 nm filter, absorbance is determined for the initial volumes of suspension. The suspension is diluted seven times by serial ten-fold dilutions in water, 150 μL of suspension per well, and the absorbance measured for each dilution. Following the absorbance measurements, each dilution loaded into wells is further diluted 1:10 and plated in duplicate on nutrient growth agar. The colonies are counted and expressed as colony forming units per milliliter (cfu/mL). Using the turbidity of the dilution in the microtiter plate, the suspension is diluted to a density of about 1×10^9 cfu/mL.
(§7) The bacteria suspension, adjusted to a known density as described above, is diluted seven times by serial ten-fold dilutions in water; 150 μL of suspension per well. Three-fold serial dilutions of dye are used (30-0.04 μM); 50 μL of dye at 4× final concentration. Using Corning 96-well microtiter flat-bottom plates, a matrix is set up whereby the cell concentration decreases across the plate and the dye concentration decreases down the plate, final volume per well is 200 μL. The top row and first column are reserved for the control, sterile water. The plate is incubated at 37° C. for 30 minutes, then read in a Millipore Cytofluor™ 2350 96-well fluorescence microplate reader at a fixed excitation of 485+/-10 nm and each of three emission wavelengths, 530+/-12, 620+/-20, or 645+/-20 nm. The results determine the best dye range (30-1 μM) and the best cell concentrations (concentrated through first three ten-fold dilutions) for optimal dye loading. […] Using the four dye dilutions and the four bacterial dilutions, many bacteria and dyes can be assayed quickly. The data collected allow the determination of optimal dye and cell concentration required for maximal fluorescence intensity per cell.

M. luteus = assay: as above; type: cell-based, Micrococcus luteus; conditions: optimal dye concentration, corrected for cell number
Description: as §1, §2, §3, §4, §5, §6, §7

S. pyogenes = assay: as above; type: cell-based, Streptococcus pyogenes; conditions: optimal dye concentration, corrected for cell number
Description: as §1, §2, §3, §4, §5, §6, §7

S. aureus = assay: as above; type: cell-based, Staphylococcus aureus
Description: as §1, §2, §3, §4, §5
(§8) Factors such as degree of fluorescence enhancement with nucleic acid binding, self quenching, molar extinction coefficient, membrane permeability, intracellular partitioning, nucleic acid binding affinity, and quantum yield contribute to the overall fluorescence of nucleic acid stains in cells. Enhanced cell fluorescence obtained with Dye I is related to unexpected properties other than quantum yield alone. Quantum yield is determined as described above (foot note to Table 2). Normalized quantum yield is determined to illustrate the fold-change in quantum yield of Dye I compared with thiazole orange, a related cell-permeant dye. The normalized fluorescence values represent the quantum yield of each dye divided by the quantum yield of thiazole orange. Fluorescence per cell is also scaled to thiazole orange values for both E. coli and S. aureus to allow direct comparison between relative (normalized) quantum yield and relative (normalized) fluorescence/cell.
as §6, §7

E. coli = assay: as above; type: cell-based, Escherichia coli
Description: as §1, §2, §3, §4, §5, §8, §6, §7

S. oranienburg = assay: as above; type: cell-based, Salmonella oranienburg; conditions: optimal dye concentration, corrected for cell number
Description: as §1, §2, §3, §4, §5, §6, §7

K. pneumonia = assay: as above; type: cell-based, Klebsiella pneumonia; conditions: optimal dye concentration, corrected for cell number
Description: as §1, §2, §3, §4, §5, §6, §7

S. sonnei = assay: as above; type: cell-based, Shigella sonnei; conditions: optimal dye concentration, corrected for cell number
Description: as §1, §2, §3, §4, §5, §6, §7

P. aeruginosa = assay: as above; type: cell-based, Pseudomonas aeruginosa; conditions: optimal dye concentration, corrected for cell number
Description: as §1, §2, §3, §4, §5, §6, §7

nucleic acids = assay: Excitation/emission maxima of dyes complexed with nucleic acids; type: physicochemical; set-up: key: wavelength in nm; conditions: Table 2; dye complexed with nucleic acids
DNA = assay: Quantum yield of dye on DNA versus fluorescein; type: physicochemical; conditions: for QY (DNA): Table 2, Tris buffered saline pH 10, fluorescein assumed 0.92
[2] = tested on: Peripheral blood lymphocytes; assay: Live/dead staining of peripheral blood lymphocytes, fluorescence microscopy; type: cell-based, goat; conditions: 1 μM dye 637, 1 μM calcein AM, 30 minutes each, either order
Description: Peripheral blood lymphocytes are isolated from whole goat blood using the standard ficoll density gradient protocol. The cells are incubated in saline buffer with coverslips coated with a cell adhesive. After attachment to the coverslip, the cells are incubated with either
a) 1 μM dye 637 for 30 minutes followed by washing, and subsequently incubating with 1 μM calcein AM for 30 minutes, or
b) as above but labeling first with calcein AM, and subsequently staining with dye 637.
After washing with saline, the stained cells are viewed through a long-pass fluorescein filter to view calcein fluorescence and a long-pass Texas Red® filter to view the emission of dye 637. A Nikon fluorescence microscope equipped with a 40× objective is used for inspection and photography.

## Nc1ccc2c(c1)c(-c1ccccc1)[n+](CCCNCCNCCC[n+]1c(-c3ccccc3)c3cc(N)ccc3c3ccc(N)cc31)c1cc(N)ccc21 [Ethidium homodimer-1]
[1]; 2 μM
  staining of dead cells: dead cells are stained fluorescent red
Calf thymus DNA
  EM max: 617 nm
  EX max: 528 nm

## CCCCC1=CC(=Cc2sc3ccccc3[n+]2C)c2ccccc2N1c1ccccc1 [compound 61]
B. cereus
  Fluorescence/Cell (ex 485/em 530): 196
M. luteus
  Fluorescence/Cell (ex 485/em 530): 49
S. pyogenes
  Fluorescence/Cell (ex 485/em 530): 0.01
S. aureus; S. aureus, optimal dye concentration, corrected for cell number
  Fluorescence/Cell (ex 485/em 530): 15
S. aureus; scaled to thiazole orange
  Normalized Fluorescence/cell (ex 485 nm/em 530 nm), Staphylococcus aureus: 4.7
E. coli; E. coli, optimal dye concentration, corrected for cell number
  Fluorescence/Cell (ex 485/em 530): 10
E. coli; scaled to thiazole orange
  Normalized Fluorescence/cell (ex 485 nm/em 530 nm), Escherichia coli: 5
S. oranienburg
  Fluorescence/Cell (ex 485/em 530): 10
K. pneumonia
  Fluorescence/Cell (ex 485/em 530): 10
S. sonnei
  Fluorescence/Cell (ex 485/em 530): 6
P. aeruginosa
  Fluorescence/Cell (ex 485/em 530): 5
Nucleic acids
  EM max: 527
  EX max: 500
DNA; QY divided by QY of thiazole orange
  Normalized QY: 2.5
DNA
  QY (DNA): 0.46
DNA; Table 7, on DNA, fluorescein reference
  QY: 0.46
[1]; 5 μM, 30 minutes, room temperature
  staining of live cells: live cells are stained fluorescent green

## CCCCC1=CC(=CC=Cc2oc3ccccc3[n+]2C)c2ccccc2N1c1ccccc1 [compound 637]
Nucleic acids
  EM max: 622
  EX max: 601
DNA
  QY (DNA): 0.28
[2]
  staining of dead cells: stained only with dye 637 and do not exhibit green fluorescence
